According to patent US20260193319A1, “PLATELET-BINDING PROTEINS AND CONJUGATES THEREOF, PARTICLES COMPRISING THEM AND USES THEREOF” (Haima Therapeutics, LLC, priority 2022, published 2026):
Several values for one entry are separate records, joined by “and”; a condition that tells them apart may be missing. Equal entries are not always repeated. Where a SMILES comes first, the peptide text is derived from it. Bridges are numbered along the chain shown (N, C = ends). [ ]: non-standard residue; d: D form. Pra = C#CC[C@H](N)C(=O)O; βAla = NCCC(=O)O

How the values were obtained:
[1] = molecular target: GPIIb/IIIa on active human platelets (human) (UniProt P08514); assay: cell-based or functional assay
Chain of UniProt P08514 (P08514 32-1039, chain 1 of 2): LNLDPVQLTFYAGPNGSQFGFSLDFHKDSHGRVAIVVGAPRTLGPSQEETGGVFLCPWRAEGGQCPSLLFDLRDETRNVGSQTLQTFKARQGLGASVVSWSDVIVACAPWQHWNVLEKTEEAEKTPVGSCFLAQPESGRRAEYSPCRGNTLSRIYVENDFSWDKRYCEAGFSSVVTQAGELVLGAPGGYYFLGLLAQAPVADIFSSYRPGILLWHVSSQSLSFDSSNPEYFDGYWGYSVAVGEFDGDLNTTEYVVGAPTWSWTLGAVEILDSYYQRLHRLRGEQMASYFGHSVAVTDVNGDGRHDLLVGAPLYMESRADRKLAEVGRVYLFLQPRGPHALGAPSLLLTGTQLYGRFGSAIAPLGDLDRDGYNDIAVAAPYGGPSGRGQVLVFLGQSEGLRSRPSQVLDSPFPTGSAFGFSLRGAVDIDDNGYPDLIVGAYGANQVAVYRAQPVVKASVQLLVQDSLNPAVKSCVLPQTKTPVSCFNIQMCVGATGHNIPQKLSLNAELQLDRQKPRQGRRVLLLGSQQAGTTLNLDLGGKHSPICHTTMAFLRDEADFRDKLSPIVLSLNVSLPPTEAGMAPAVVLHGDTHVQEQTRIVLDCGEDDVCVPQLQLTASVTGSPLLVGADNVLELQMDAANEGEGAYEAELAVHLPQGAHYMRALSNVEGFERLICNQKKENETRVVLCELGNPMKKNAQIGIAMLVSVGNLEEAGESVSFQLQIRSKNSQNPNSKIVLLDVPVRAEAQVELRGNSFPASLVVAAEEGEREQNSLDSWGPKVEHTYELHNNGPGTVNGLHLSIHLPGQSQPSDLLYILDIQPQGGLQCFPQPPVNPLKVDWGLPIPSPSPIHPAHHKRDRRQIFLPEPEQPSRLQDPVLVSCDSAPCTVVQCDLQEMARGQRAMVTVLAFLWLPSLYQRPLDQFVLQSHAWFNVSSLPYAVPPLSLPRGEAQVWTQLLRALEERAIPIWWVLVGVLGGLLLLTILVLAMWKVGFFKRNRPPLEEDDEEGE
Chain of UniProt P08514 (P05106 27-788, chain 2 of 2, further chain): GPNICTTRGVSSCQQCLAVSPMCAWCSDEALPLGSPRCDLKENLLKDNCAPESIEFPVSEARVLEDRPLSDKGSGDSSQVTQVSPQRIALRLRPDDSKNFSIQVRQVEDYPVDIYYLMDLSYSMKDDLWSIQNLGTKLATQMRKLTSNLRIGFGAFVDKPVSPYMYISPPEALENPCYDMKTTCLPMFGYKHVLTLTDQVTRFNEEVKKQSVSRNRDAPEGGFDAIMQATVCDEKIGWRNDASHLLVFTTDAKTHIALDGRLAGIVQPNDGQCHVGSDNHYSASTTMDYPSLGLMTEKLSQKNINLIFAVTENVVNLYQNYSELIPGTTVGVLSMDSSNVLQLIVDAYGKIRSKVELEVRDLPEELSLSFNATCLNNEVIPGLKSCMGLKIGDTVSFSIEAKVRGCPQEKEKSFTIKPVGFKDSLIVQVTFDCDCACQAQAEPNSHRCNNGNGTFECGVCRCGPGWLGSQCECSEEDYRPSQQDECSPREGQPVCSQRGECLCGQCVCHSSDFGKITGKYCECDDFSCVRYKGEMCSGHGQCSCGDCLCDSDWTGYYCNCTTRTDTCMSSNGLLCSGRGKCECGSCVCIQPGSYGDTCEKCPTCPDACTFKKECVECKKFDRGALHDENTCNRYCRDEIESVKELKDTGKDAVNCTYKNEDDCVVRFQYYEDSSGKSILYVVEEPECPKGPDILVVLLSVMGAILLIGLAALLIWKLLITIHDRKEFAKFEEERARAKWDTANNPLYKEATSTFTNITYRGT

[2] = tested on: human platelets (PRP stimulated with ADP); assay: Peptide inhibition of platelet aggregation, light transmission aggregometry in human PRP/ADP; format: cell-based; details: for Peptide Inhibition of Platelet Aggregation, pass/fail result: criterion: inhibition of platelet aggregation, FMP2 IC50 ≤ FMP1 IC50; for IC50: human PRP/ADP, final aggregation, log-dose vs response fit, approximate
Source text: The properties of the FMP2 peptide and peptide-decorated particles (synthetic platelet) were compared to those of the old FMP1 peptide. First, Chang et al. have shown that cyclic RGD peptides are able to selectively bind to activated platelets and prevent human platelet aggregation as measured via platelet light transmission aggregometry. This protocol was adapted and performed to compare the IC50 values of FMP1 and FMP2. Specifically, human whole blood was drawn from healthy, aspirin refraining donors via venipuncture into syringe containing 3.8% w/v sodium citrate. Platelet rich plasma (PRP) was obtained by centrifugation of whole blood in a tabletop centrifuge at 150×g for 15 minutes. Platelet aggregation experiments were performed with 225 μl of 25% o (v/v) diluted PRP stimulated with 25 μl of 10 μM adenosine 5′-diphosphate (ADP) (or saline as a negative control) on a Bio/Data PAP-8E Platelet Aggregation Profiler. 20 μl of saline containing 0.0001 μM to 250 μM of FMP1 or FMP2 (at each order of magnitude) were added to the 25% o diluted PRP, and final aggregation percentage was recorded. In GraphPad Prism®, a non-linear fit of log-dose vs. response was applied to the data, and the IC50 for each peptide was determined by calculating the intersection point at y=50.

FMP1, cyclo-{Pra}CNPRGD{Tyr(OEt)}RC trifluoroacetate salt (peptide)
IC50 of inhibition of ADP-stimulated human platelet aggregation (light transmission aggregometry, diluted PRP, final aggregation %) [1]: 537 µM

FMP2, cyclo-(CNPRGD{Tyr(OEt)}R-β-A) trifluoroacetate salt (peptide)
IC50 of inhibition of ADP-stimulated human platelet aggregation (light transmission aggregometry, diluted PRP, final aggregation %) [1]: 0.13 µM

C#CC[C@H](N)C(=O)N[C@H]1CSSC[C@@H](C(=O)O)NC(=O)[C@H](CCCNC(=N)N)NC(=O)[C@H](Cc2ccc(OCC)cc2)NC(=O)[C@H](CC(=O)O)NC(=O)CNC(=O)[C@H](CCCNC(=N)N)NC(=O)[C@@H]2CCCN2C(=O)[C@H](CC(N)=O)NC1=O [FMP1, cyclo-{Pra}CNPRGD{Tyr(OEt)}RC, reference compound] (H-[Pra]CNPRGDY(Et)RC-OH; disulfide 2-10; N-terminus and C-terminus assumed)
Peptide Inhibition of Platelet Aggregation, pass/fail result [2]: Pass
IC50 [2]: ~537 µM and 537 µM

CCOc1ccc(C[C@@H]2NC(=O)[C@H](CC(=O)O)NC(=O)CNC(=O)[C@H](CCCNC(=N)N)NC(=O)[C@@H]3CCCN3C(=O)[C@H](CC(N)=O)NC(=O)[C@H](CS)NC(=O)CCNC(=O)[C@H](CCCNC(=N)N)NC2=O)cc1 [FMP2, cyclo-(CNPRGD{Tyr(OEt)}R-β-A)] (cyclo(CNPRGDY(Et)R[βAla]))
concentrations inhibiting platelet aggregation, FMP2 relative to FMP1 ([2]; comparison of IC50): over three orders of magnitude below FMP1
Peptide Inhibition of Platelet Aggregation, pass/fail result [2]: Pass
IC50 [2]: ~0.13 µM and 0.13 µM
